This note sets out measurements from patent publication US9206193B2, “Substituted norindenoisoquinolines, syntheses thereof, and methods of use” (PURDUE RESEARCH FOUNDATION, priority 2010, dated 2015).

The target in one series is T1, Human recombinant Top1 (Homo sapiens, UniProt P11387).
T1 construct: made in house
T1 sequence (P11387 1-765): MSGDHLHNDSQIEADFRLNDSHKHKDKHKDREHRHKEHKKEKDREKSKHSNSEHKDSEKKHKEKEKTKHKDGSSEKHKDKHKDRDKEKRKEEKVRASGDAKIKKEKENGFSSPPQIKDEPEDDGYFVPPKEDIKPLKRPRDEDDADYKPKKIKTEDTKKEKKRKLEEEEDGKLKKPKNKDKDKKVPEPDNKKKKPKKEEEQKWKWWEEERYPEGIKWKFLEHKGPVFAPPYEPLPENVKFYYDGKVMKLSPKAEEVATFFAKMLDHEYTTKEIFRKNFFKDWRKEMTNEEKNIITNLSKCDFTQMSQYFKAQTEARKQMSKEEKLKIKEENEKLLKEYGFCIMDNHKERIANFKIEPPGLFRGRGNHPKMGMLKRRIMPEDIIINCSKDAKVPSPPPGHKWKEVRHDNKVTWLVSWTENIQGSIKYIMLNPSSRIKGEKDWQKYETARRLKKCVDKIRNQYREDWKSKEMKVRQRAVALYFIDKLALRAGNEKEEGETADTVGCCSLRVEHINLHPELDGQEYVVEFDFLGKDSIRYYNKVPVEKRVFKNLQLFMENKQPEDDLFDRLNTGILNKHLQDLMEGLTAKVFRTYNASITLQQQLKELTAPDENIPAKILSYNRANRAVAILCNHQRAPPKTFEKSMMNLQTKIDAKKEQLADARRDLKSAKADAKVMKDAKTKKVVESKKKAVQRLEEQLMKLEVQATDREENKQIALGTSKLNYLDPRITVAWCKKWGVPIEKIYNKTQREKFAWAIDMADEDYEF
The series is described as follows: Topoisomerase I-mediated DNA cleavage reactions. Particulars: for Top1 cleavage: semiquantitative, relative to 1 uM CPT, concentrations ranging up to 10 uM. On the set-up: key to Top1 cleavage: 0: no activity; +: weak activity; ++: similar activity as CPT; +++ and ++++: greater activity than CPT; ++++: similar activity as 1 uM CPT. The series is classed as biochemical. As to the method: Norindenoisoquinolines 14a-f are examined for induction of Top1-mediated DNA cleavage using a 117-bp DNA oligonucleotide encompassing the previously identified Top1 cleavage sites in the 161-bp fragment from pBluescript SK(−) phagemid DNA (Dexheimer & Pommier DNA Cleavage Assay for the Identification of Topoisomerase I Inhibitors. Nat. Protocol. 2008, 3, 1736-1750).
Human recombinant Top1 was purified from baculovirus as previously described.^46 DNA cleavage reactions were prepared as previously reported with the exception of the DNA substrate.^13 Briefly, a 117-bp DNA oligonucleotide (Integrated DNA Technologies) encompassing the previously identified Top1 cleavage sites in the 161-bp fragment from pBluescript SK(−) phagemid DNA was employed. This 117-bp oligonucleotide contains a single 5′-cytosine overhang, which was 3′-end labeled by fill-in reaction with [α-^32P]-dGTP in React 2 buffer (50 mM Tris-HCl, pH 8.0, […], 50 mM NaCl) with 0.5 units of DNA polymerase I (Klenow fragment, New England BioLabs). Unincorporated ^32P-dGTP was removed using mini Quick Spin DNA columns (Roche, Indianapolis, Ind.), and the eluate containing the 3′-end-labeled DNA substrate was collected. Approximately 2 nM of radiolabeled DNA substrate was incubated with recombinant Top1 in 20 μL of reaction buffer [10 mM Tris-HCl (pH 7.5), 50 mM KCl, 5 mM MgCl2, 0.1 mM EDTA, and 15 μg/ml BSA] at 25° C. for 20 min in the presence of various concentrations of compounds. The reactions were terminated by adding SDS (0.5% final concentration) followed by the addition of two volumes of loading dye (80% formamide, 10 mM sodium hydroxide, 1 mM sodium EDTA, 0.1% xylene cyanol, and 0.1% bromphenol blue). Aliquots of each reaction were subjected to 20% denaturing PAGE. Gels were dried and visualized by using a Phosphoimager and ImageQuant software (Molecular Dynamics). For simplicity, cleavage sites were numbered as previously described in the 161-bp fragment.

Another series deals with UACC-62. In words: NCI DTP antiproliferative screen, melanoma UACC-62. The series is classed as cell-based, human. The procedure: (§1) The norindenoisoquinolines are examined for antiproliferative activity in the National Cancer Institute's Developmental Therapeutics Program (DTP) (Boyd & Paull, Some Practical Considerations and Applications of the National Cancer Institute In Vitro Anticancer Drug Discovery Screen. Drug Development Res. 1995, 34, 91-109; Shoemaker, The NCI60 Human Tumour Cell Line Anticancer Drug screen. Nat. Rev. Cancer 2006, 6, 813-823). Each compound is evaluated against approximately 55 human cell lines representing leukemia, melanoma, and cancers of the lung, colon, brain, breast, ovary, prostate and kidney. After an initial one-dose assay at a single high dose (10^−5 M), only compounds that satisfy the pre-determined threshold inhibition criteria are selected for further 5-dose assay.

Series [1] has as its system all human cancer cell lines successfully tested. The series is described as follows: NCI DTP antiproliferative screen, mean graph midpoint. In kind it is cell-based. Particulars: average GI50 of all cell lines tested; values outside 10^-8 to 10^-4 M taken as the limits. The procedure: as §1
The next series has as its system HOP-62. In words: NCI DTP antiproliferative screen, lung HOP-62. The series is classed as cell-based, human. As to the method: as §1
A further series concerns OVCAR-3. In words: NCI DTP antiproliferative screen, ovarian OVCAR-3. The series is classed as cell-based, human. As to the method: as §1
The test system of another series is DU-145. In words: NCI DTP antiproliferative screen, prostate DU-145. In kind it is cell-based, human. The procedure: as §1
The test system of the next series is SF-539. The series is described as follows: NCI DTP antiproliferative screen, CNS SF-539. The series is classed as cell-based, human. The procedure:
as §1

A further series relates to HCT-116. In words: NCI DTP antiproliferative screen, colon HCT-116. In kind it is cell-based, human. The procedure:
as §1

The next series relates to SN12C. The series is described as follows: NCI DTP antiproliferative screen, renal SN12C. In kind it is cell-based, human. As to the method:
as §1

The subject of a further series is MDA-MB-435. In words: NCI DTP antiproliferative screen, breast MDA-MB-435. In kind it is cell-based. Particulars: Homo sapiens. The procedure: as §1
The mark [2] stands for this setting: 117-bp DNA substrate, gel of FIG. 2.

Where two headings read alike, the source gives them in different places. Some results are limits rather than exact numbers.

For `COc1cc2cnc3c(c2cc1OC)Cc1cc2c(cc1-3)OCO2` [Compound 5, reference compound], at Human recombinant Top1 (setting [2]), the “44 (C-G) cleavage site in Top1-mediated DNA cleavage pattern” value (shortened to “44 (C-G) cleavage site”) is “seen”, the “97 (T-A) cleavage site in Top1-mediated DNA cleavage pattern” value was “observed” and the “106 (C-T) cleavage site in Top1-mediated DNA cleavage pattern” value (“106 (C-T) cleavage site” below) is “observed”.
For orientation: GI50 means the concentration giving 50% growth inhibition. With `COc1cc2cnc3c(c2cc1OC)Cc1c-3cc2c(c1CN(C)CCN(C)C)OCO2` [Compound 14f, 2,3-Dimethoxy-8,9-methylenedioxy-10-(N,N,N′-trimethylethylenediamino)methyl-11H-indeno[1,2-c]isoquinoline], the GI50 with UACC-62 worked out at 730 nM; with HOP-62 it was 1500 nM; with OVCAR-3, 7400 nM; in the series on DU-145 it was 3400 nM; with SF-539, 11000 nM; in the series on HCT-116 it was 1900 nM. The compound further had a concentration for 50% growth inhibition (GI50) with SN12C greater than 100000 nM. Also, in series [1], the “MGM (mean graph midpoint for growth inhibition)” value amounted to 6.3 µM.
As a reminder, the melting point is the temperature, or range, at which the solid turns liquid. Take `COc1cc2cnc3c(c2cc1OC)Cc1c-3cc2c(c1CN1CCCC1)OCO2` [Compound 14b, 2,3-Dimethoxy-8,9-methylenedioxy-10-(pyrrolidin-1-yl)methyl-11H-indeno[1,2-c]isoquinoline]: the melting point was 210 °C (dec.). Moreover, the GI50 with UACC-62 (Homo sapiens, UACC-62, read-out: Cytotoxicity GI50 Melanoma UACC-62) is 6700 nM. Further, the “MGM (mean graph midpoint for growth inhibition)” value in [1] was determined as 2.3 µM. The Top1 cleavage entry on Human recombinant Top1 was “+++”. Besides, in the series on MDA-MB-435 (MDA-MB-435, read-out: Cytotoxicity GI50 Breast MDA-MB-435), the GI50 was determined as 2500 nM. Further, the GI50 in the series on HOP-62 (Homo sapiens, HOP-62, read-out: Cytotoxicity GI50 Lung HOP-62) came to 1200 nM. For the same compound, the concentration for 50% growth inhibition (GI50) in the series on OVCAR-3 (Homo sapiens, OVCAR-3, read-out: Cytotoxicity GI50 Ovarian OVCAR-3) turned out to be 730 nM. For the same compound, the GI50 in the series with DU-145 (Homo sapiens, DU-145, read-out: Cytotoxicity GI50 Prostate DU-145) is 730 nM. For the same compound, in the series on SF-539 (Homo sapiens, read-out: Cytotoxicity GI50 CNS SF-539), the concentration for 50% growth inhibition (GI50) was found to be 1900 nM. Moreover, the 50% growth inhibitory concentration (GI50) with HCT-116 (Homo sapiens, HCT-116, read-out: Cytotoxicity GI50 Colon HCT-116) came to 640 nM. Moreover, in the series on SN12C (Homo sapiens, SN12C, read-out: Cytotoxicity GI50 Renal SN12C), the GI50 turned out to be 4400 nM.
With `COc1cc2cnc3c(c2cc1OC)Cc1c-3cc2c(c1CN1CCN(C)CC1)OCO2` [Compound 14d, 2,3-Dimethoxy-8,9-methylenedioxy-10-(4-methylpiperazin-1-yl)methyl-11H-indeno[1,2-c]isoquinoline], the melting point was 296 °C (dec.). The “106 (C-T) cleavage site” value on Human recombinant Top1 (setting [2]) is “absent”. On Human recombinant Top1, the Top1 cleavage result is listed as “++”.
`COc1cc2c3c(n(CCCNCCO)c(=O)c2cc1OC)-c1cc2c(cc1C3=O)OCO2` [MJ-III-65, reference compound]: on Human recombinant Top1 (setting [2]), the “44 (C-G) cleavage site” value was “seen” and the “62 (C-A) cleavage site in Top1-mediated DNA cleavage pattern” value was “observed”.
Consider `COc1cc2cnc3c(c2cc1OC)Cc1c-3cc2c(c1CN1CCOCC1)OCO2` [Compound 14e, 2,3-Dimethoxy-8,9-methylenedioxy-10-(4-morpholino)methyl-11H-indeno[1,2-c]isoquinoline], for which the 50% growth inhibitory concentration (GI50) in the series with UACC-62 was no less than 100000 nM; in the series on HOP-62, 2100 nM; in the series with OVCAR-3, 1700 nM; in the series on DU-145, 1900 nM; in the series with SF-539 it was 1800 nM; in the series on HCT-116, 1400 nM. In the series with SN12C, halving of growth (GI50) required 2300 nM. Moreover, the “MGM (mean graph midpoint for growth inhibition)” value in series [1] was 2.4 µM. Moreover, at Human recombinant Top1 (setting [2]), the “106 (C-T) cleavage site” value was “absent”. Moreover, the Top1 cleavage result on Human recombinant Top1 is “+”.
For the compound `CC[C@@]1(O)C(=O)OCc2c1cc1n(c2=O)Cc2cc3ccccc3nc2-1` [CPT, camptothecin, reference compound], the GI50 worked out at 10 nM in the series on UACC-62 (Homo sapiens, UACC-62, Table 2, read-out: Cytotoxicity GI50 Melanoma UACC-62); 40 nM in the series with MDA-MB-435 (MDA-MB-435, Table 2, read-out: Cytotoxicity GI50 Breast MDA-MB-435); 10 nM with HOP-62 (Homo sapiens, HOP-62, Table 2, read-out: Cytotoxicity GI50 Lung HOP-62); 10 nM in the series on DU-145 (Homo sapiens, DU-145, Table 2, read-out: Cytotoxicity GI50 Prostate DU-145); 10 nM in the series with SF-539 (Homo sapiens, Table 2, read-out: Cytotoxicity GI50 CNS SF-539); 30 nM with HCT-116 (Homo sapiens, HCT-116, Table 2, read-out: Cytotoxicity GI50 Colon HCT-116). Moreover, the 50% growth inhibitory concentration (GI50) in the series on SN12C (Homo sapiens, SN12C, Table 2, read-out: Cytotoxicity GI50 Renal SN12C) is 20 nM. Also, in series [1], the “MGM (mean graph midpoint for growth inhibition)” value came to 0.0405 µM. For the same compound, the “37 (T-G) cleavage site in Top1-mediated DNA cleavage pattern” value on Human recombinant Top1 (setting [2]) is recorded as “observed”. Besides, on Human recombinant Top1 (setting [2]), the “44 (C-G) cleavage site” value is listed as “not”. Moreover, the Top1 cleavage result at Human recombinant Top1 is given as “++++”.
